In patent US12264158B2, “Protein kinase MKK4 inhibitors for promoting liver regeneration or reducing or preventing hepatocyte death” (HEPAREGENIX GMBH, priority 2018, dated 2025):

Key:
[1] = molecular target: T1, MKK4 active (Homo sapiens, UniProt P45985); experiment: Radiometric protein kinase assay, MKK4 active; assay type: biochemical; details: substrate JNK1 KRKR, ATP 0.2 μM, read-out: MKK4, potency derived from IC50-values
T1 construct: purchased ProQinase #0948-0000-1
T1 sequence (P45985 1-399): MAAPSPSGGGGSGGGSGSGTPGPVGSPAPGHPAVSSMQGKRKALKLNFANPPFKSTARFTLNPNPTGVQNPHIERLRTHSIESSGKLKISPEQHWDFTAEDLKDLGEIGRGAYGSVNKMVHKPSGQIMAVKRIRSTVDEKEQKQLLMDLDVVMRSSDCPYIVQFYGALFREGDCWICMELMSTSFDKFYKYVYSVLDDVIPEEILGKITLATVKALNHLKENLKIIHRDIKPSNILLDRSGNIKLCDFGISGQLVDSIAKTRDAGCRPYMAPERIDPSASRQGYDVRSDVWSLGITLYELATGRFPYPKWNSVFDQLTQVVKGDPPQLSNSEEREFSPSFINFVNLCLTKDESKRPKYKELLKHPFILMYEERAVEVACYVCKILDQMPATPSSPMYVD
Protocol: (§1) A radiometric protein kinase assay was used for measuring the kinase activity of the respective protein kinases. All kinase assays were performed in 96-well polypropylene plates. After the reactions were stopped, the assay mixtures were transferred to 96-well MSFC filter-plates (Millipore). The reaction mix was passed through the filter membrane by aspiration, the membrane was washed 3 times with 150 mM H3PO4, once with ethanol, dried and liquid scintillation cocktail was added. Radioactivity was determined by counting of the samples in a Microbeta multiwell scintillation counter (Wallac).

[2] = molecular target: T2, JNK1 (Homo sapiens, UniProt P45983); experiment: KINOMEscan competition binding assay, selectivity against off-target JNK1; details: concentration of 100 nM
T2 construct: M1/Q384; host or cells: HEK-293
Outline: (§2)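 DNA-tagged kinases expressed in HEK-293 cells compete between test compound and immobilized ligand on blocked beads. Bound kinase is eluted and quantified by qPCR of the DNA tag. Compounds were tested at the indicated final concentrations, prepared from 10 mM stocks.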

[3] = molecular target: BRaf (Homo sapiens, UniProt P15056); experiment: KINOMEscan competition binding assay, selectivity against off-target BRaf; details: concentration of 100 nM
Outline: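 Competition binding: test compound competes with an immobilized ligand for DNA-tagged BRaf, and kinase captured on the ligand is quantified by qPCR of the DNA tag. Compounds from 10 mM stocks were tested at the indicated final concentrations.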

[4] = molecular target: T3, MKK7 (Homo sapiens, UniProt O14733); experiment: KINOMEscan competition binding assay, selectivity against off-target MKK7; details: concentration of 100 nM
T3 construct: M1/R419; host or cells: HEK-293
T3 sequence (O14733 1-419): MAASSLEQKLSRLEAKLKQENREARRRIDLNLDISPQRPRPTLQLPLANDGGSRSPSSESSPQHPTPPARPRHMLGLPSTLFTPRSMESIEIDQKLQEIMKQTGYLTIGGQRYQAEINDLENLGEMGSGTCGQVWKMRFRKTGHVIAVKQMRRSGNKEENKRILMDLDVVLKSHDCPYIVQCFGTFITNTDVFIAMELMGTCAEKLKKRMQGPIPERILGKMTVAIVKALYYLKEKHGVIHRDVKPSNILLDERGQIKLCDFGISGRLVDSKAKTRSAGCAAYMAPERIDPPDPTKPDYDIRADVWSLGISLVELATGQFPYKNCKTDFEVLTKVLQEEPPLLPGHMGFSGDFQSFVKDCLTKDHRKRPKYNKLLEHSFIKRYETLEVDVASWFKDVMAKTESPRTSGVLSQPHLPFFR
Outline: as §2

[5] = molecular target: T4, MKK4 (Homo sapiens, UniProt P45985); experiment: KINOMEscan competition binding assay, MKK4 potency; details: concentration of 100 nM
T4 construct: S84/D399; host or cells: HEK-293
T4 sequence (P45985 84-399): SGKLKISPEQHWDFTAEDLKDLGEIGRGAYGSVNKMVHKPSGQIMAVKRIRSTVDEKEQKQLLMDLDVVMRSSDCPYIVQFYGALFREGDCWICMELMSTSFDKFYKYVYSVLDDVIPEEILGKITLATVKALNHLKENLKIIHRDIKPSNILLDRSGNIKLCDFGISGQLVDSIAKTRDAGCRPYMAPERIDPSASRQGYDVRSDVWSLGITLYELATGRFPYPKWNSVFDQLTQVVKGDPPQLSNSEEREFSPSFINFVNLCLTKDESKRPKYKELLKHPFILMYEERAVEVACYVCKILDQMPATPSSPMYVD
Outline: as §2

[6] = molecular target: T5, MEKK2 (Homo sapiens, UniProt Q9Y2U5); experiment: Radiometric protein kinase assay, MEKK2; assay type: biochemical; details: substrate Casein, ATP 0.2 μM; read-out: MEKK2, potency derived from IC50-values
T5 construct: purchased ProQinase #0583-0000-1
T5 sequence (Q9Y2U5 1-619): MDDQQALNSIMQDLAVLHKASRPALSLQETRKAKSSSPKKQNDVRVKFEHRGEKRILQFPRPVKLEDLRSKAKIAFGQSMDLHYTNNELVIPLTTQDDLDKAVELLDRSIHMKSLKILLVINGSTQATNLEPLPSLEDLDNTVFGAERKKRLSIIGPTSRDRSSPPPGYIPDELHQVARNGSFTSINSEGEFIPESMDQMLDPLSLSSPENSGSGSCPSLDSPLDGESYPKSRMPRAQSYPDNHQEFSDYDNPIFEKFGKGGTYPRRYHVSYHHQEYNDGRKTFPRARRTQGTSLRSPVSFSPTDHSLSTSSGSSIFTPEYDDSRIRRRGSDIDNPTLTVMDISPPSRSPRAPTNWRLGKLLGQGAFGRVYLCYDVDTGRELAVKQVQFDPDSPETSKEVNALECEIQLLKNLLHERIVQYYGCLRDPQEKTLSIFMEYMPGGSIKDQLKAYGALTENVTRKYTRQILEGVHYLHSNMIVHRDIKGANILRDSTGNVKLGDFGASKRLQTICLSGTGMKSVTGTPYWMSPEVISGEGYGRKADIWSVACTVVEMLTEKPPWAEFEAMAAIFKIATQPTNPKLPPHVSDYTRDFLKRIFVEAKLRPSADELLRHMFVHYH
Outline: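 Kinase activity measured radiometrically: stopped reactions were captured on filter plates, washed with 150 mM H3PO4 and ethanol, and incorporated radioactivity counted by liquid scintillation.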

[7] = molecular target: T6, MKK4-MEKK2 mix (Homo sapiens, UniProt P45985); experiment: Radiometric protein kinase assay, MEKK2 dependent MKK4 activation (cascade); assay type: biochemical; details: substrate JNK1 KRKR, ATP 0.2 μM, read-out: Cascade, potency derived from IC50-values
T6 construct: MEKK2, recombinant, active: ProQinase product #0583-0000-1
T6 sequence (P45985 2-399): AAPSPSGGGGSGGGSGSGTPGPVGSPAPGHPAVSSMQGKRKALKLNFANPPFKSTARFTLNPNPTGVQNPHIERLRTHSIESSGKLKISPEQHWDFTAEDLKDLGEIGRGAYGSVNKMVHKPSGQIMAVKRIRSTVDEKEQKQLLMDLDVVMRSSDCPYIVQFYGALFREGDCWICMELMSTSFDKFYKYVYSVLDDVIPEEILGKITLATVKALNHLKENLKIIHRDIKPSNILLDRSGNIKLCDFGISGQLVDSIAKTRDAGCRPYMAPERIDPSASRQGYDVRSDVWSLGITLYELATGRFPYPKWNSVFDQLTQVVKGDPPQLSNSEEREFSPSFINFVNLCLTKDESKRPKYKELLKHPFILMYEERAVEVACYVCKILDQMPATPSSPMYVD
Protocol: The activation step is done in 50 mM HEPES pH 7.5, 50 mM NaCl, 3.8 mM MgCl2, 2.5 mM DTT, 10% (v/v) glycerol. Final DMSO concentration is 1%. The activation mixture is pipetted in the following order • 2.5 μl compound in 4% DMSO • 2.5 μl ATP/MgCl2 mix • 5 μl premixed kinase solution MKK4:MEKK2 10:1 (w/w)
Protein concentrations in the activation mix are 1 μM MKK4 and 50 nM MEKK2.
as §1

T2 sequence (P45983 1-384 isoform P45983-2): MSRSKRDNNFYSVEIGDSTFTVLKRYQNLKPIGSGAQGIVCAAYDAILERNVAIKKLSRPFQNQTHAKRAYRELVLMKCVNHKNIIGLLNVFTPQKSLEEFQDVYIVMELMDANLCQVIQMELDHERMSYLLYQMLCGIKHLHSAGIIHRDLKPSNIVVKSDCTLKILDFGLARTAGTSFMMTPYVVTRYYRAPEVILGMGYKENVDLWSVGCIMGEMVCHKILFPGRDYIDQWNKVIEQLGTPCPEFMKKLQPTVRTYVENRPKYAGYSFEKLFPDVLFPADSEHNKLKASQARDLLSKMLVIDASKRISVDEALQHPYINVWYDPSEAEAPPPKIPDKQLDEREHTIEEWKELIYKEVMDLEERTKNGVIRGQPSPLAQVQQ
Sequence of BRaf (P15056 whole entry): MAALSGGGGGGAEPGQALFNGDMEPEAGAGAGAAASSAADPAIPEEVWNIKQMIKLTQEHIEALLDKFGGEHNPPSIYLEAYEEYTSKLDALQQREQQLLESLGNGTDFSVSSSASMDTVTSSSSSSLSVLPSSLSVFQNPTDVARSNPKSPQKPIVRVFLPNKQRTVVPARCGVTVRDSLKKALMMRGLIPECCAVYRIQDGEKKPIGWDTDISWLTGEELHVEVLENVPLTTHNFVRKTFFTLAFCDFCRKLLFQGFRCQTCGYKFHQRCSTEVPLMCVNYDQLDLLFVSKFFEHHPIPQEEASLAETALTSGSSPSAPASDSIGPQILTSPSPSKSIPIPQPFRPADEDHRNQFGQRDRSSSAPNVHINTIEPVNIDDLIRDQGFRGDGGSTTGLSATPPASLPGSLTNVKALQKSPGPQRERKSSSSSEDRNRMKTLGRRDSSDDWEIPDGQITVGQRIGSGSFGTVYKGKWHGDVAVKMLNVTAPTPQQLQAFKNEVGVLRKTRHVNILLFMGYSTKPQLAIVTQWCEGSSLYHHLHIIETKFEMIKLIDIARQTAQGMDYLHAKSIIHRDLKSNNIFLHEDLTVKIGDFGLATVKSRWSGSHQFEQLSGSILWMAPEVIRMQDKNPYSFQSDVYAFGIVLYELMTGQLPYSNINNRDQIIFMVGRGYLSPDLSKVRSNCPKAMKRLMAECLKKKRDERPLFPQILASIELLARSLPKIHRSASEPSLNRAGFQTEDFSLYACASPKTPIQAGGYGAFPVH

Row | Compound | IC50 [1] [µM] | Selectivity vs. JNK1, ratio PoC(JNK1)/PoC(MKK4) [2] | Selectivity vs. BRaf, ratio PoC(BRaf)/PoC(MKK4) [3] | Selectivity vs. MKK7, ratio PoC(MKK7)/PoC(MKK4) [4] | MKK4, residual percent of control binding (PoC) [5] | IC50 [6] [µM] | IC50 [7] [µM]
1 | CCCS(=O)(=O)Nc1ccc(F)c(C(=O)c2n[nH]c3ncc(-c4ccccc4OC)cc23)c1F [Example 14, N-(2,4-difluoro-3-(5-(2-methoxyphenyl)-1H-pyrazo-lo[3,4-b]pyridine-3-carbonyl)-phenyl)propane-1-sulfon-amide] | 0.5 to 1 | ++ (30 > PoC(JNK1)/PoC(MKK4) ≥ 10) | +++ (PoC(BRaf)/PoC(MKK4) ≥ 30) | +++ (PoC(MKK7)/PoC(MKK4) ≥ 30) | ++ (1 ≤ PoC < 10) | > 10 | 1 to 10
2 | CCCS(=O)(=O)Nc1ccc(F)c(C(=O)c2n[nH]c3ncc(-c4ccc(O)cc4)cc23)c1F [Example 19, N-(2,4-difluoro-3-(5-(4-hydroxyphenyl)-1H-pyrazo-lo[3,4-b]pyridine-3-carbonyl)-phenyl)propane-1-sulfon-amide] | < 0.5 | +++ (PoC(JNK1)/PoC(MKK4) ≥ 30) | ++ (30 > PoC(BRaf)/PoC(MKK4) ≥ 10) | +++ (PoC(MKK7)/PoC(MKK4) ≥ 30) | +++ (PoC < 1) | 1 to 10 | 1 to 10
3 | CCCS(=O)(=O)Nc1ccc(F)c(C(=O)c2n[nH]c3ncc(-c4ccc([N+](=O)[O-])cc4)cc23)c1F [Example 23, N-(2,4-difluoro-3-(5-(4-nitrophenyl)-1H-pyrazolo-[3,4-b]pyridine-3-carbonyl)-phenyl)propane-1-sulfon-amide] | > 10 | ++ (30 > PoC(JNK1)/PoC(MKK4) ≥ 10) | + (10 > PoC(BRaf)/PoC(MKK4) ≥ 3) | ++ (30 > PoC(MKK7)/PoC(MKK4) ≥ 10) | ++ (1 ≤ PoC < 10) | > 10 | > 10
4 | CCCS(=O)(=O)Nc1ccc(F)c(C(=O)c2n[nH]c3ncc(-c4ccc(S(C)(=O)=O)cc4)cc23)c1F [Example 24, N-(2,4-difluoro-3-(5-(4-(methylsulfonyl)phenyl)-1H-pyrazolo[3,4-b]pyridine-3-carbonyl)phenyl)propane-1-sulfonamide] | 0.5 to 1 | +++ (PoC(JNK1)/PoC(MKK4) ≥ 30) | O (PoC(BRaf)/PoC(MKK4) < 3) | +++ (PoC(MKK7)/PoC(MKK4) ≥ 30) | ++ (1 ≤ PoC < 10) | > 10 | > 10

Other lines, results leading:

Row | IC50 [1] [µM] | Selectivity vs. JNK1, ratio PoC(JNK1)/PoC(MKK4) [2] | Selectivity vs. BRaf, ratio PoC(BRaf)/PoC(MKK4) [3] | Selectivity vs. MKK7, ratio PoC(MKK7)/PoC(MKK4) [4] | MKK4, residual percent of control binding (PoC) [5] | IC50 [6] [µM] | IC50 [7] [µM] | Compound
5 | < 0.5 | +++ (PoC(JNK1)/PoC(MKK4) ≥ 30) | + (10 > PoC(BRaf)/PoC(MKK4) ≥ 3) | +++ (PoC(MKK7)/PoC(MKK4) ≥ 30) | +++ (PoC < 1) | 1 to 10 | 1 to 10 | CCCS(=O)(=O)Nc1ccc(F)c(C(=O)c2n[nH]c3ncc(-c4ccc(S(N)(=O)=O)cc4)cc23)c1F [Example 15, 4-(3-(2,6-difluoro-3-(propyl-sulfonamido)benzoyl)-1H-pyrazolo[3,4-b]pyridin-5-yl)benzene-sulfonamide]
6 | 1 to 10 | ++ (30 > PoC(JNK1)/PoC(MKK4) ≥ 10) | + (10 > PoC(BRaf)/PoC(MKK4) ≥ 3) | ++ (30 > PoC(MKK7)/PoC(MKK4) ≥ 10) | ++ (1 ≤ PoC < 10) | > 10 | 1 to 10 | CCCS(=O)(=O)Nc1ccc(F)c(C(=O)c2n[nH]c3ncc(-c4cccc(OC)c4)cc23)c1F [Example 17, N-(2,4-difluoro-3-(5-(3-methoxyphenyl)-1H-pyrazo-lo[3,4-b]pyridine-3-carbonyl)-phenyl)propane-1-sulfon-amide]
7 | < 0.5 | +++ (PoC(JNK1)/PoC(MKK4) ≥ 30) | ++ (30 > PoC(BRaf)/PoC(MKK4) ≥ 10) | +++ (PoC(MKK7)/PoC(MKK4) ≥ 30) | +++ (PoC < 1) | 1 to 10 | 0.5 to 1 | CCCS(=O)(=O)Nc1ccc(F)c(C(=O)c2n[nH]c3ncc(-c4ccc(N)cc4)cc23)c1F [Example 18, N-(3-(5-(4-aminophenyl)-1H-pyrazolo[3,4-b]pyridine-3-carbonyl)-2,4-difluorophenyl)-propane-1-sulfonamide]
8 | 0.5 to 1 | + (10 > PoC(JNK1)/PoC(MKK4) ≥ 3) | + (10 > PoC(BRaf)/PoC(MKK4) ≥ 3) | ++ (30 > PoC(MKK7)/PoC(MKK4) ≥ 10) | ++ (1 ≤ PoC < 10) | 1 to 10 | 1 to 10 | CCCS(=O)(=O)Nc1ccc(F)c(C(=O)c2n[nH]c3ncc(-c4ccccc4O)cc23)c1F [Example 21, N-(2,4-difluoro-3-(5-(2-hydroxyphenyl)-1H-pyrazo-lo[3,4-b]pyridine-3-carbonyl)-phenyl)propane-1-sulfon-amide]
